Results on 17 compounds are retold here after article PMC6273811, “Synthesis and Antitumor Evaluation of Novel 5-Hydrosulfonyl-1H-benzo[d]imidazol-2(3H)-one Derivatives” (Molecules, 2016).

≈ marks a conversion by molar mass, not a printed value.

As a reminder, the IC50 is the concentration at which inhibition is half-maximal. One may read the melting point as the temperature of the solid-liquid transition.

Data set [1] can be described thus: In vitro cytotoxic activity, Hek293. It counts as cell-based. The conditions noted are these: human, Hek293 cells; unit inferred. The source says: Table 1 In vitro cytotoxic activity of target compounds: 5a–o. | column: Hek293
In data set [2] the test system is A549, HCC1937 and MDA-MB-468 cell lines. Put plainly: MTT assay, statements over the three cell lines. It counts as cell-based, human. The conditions noted are these: for IC50: Homo sapiens, range over the three cell lines and over 5a and 5b, read-out: IC50 toward the A549, HCC1937 and MDA-MB-468 cell lines; for Potency compared to 5a and 5b / Activity toward the cell lines (in words): SAR discussion. On the procedure:
(§1) Compounds 5a–o were evaluated for their cytotoxic activity in vitro against some human cancer cell lines, including A549, HCC1937 and MDA-MB-468 by applying a MTT colorimetric assay. Doxorubicin was used as positive control. The calculated IC50 values were reported differently according to the different cancer cells.
(§2) All target compounds were evaluated for their cytotoxic activities (%) in vitro against human cancer cell lines, including A549, HCC1937 and MDA-MB-468, by applying the MTT colorimetric assay. The cell concentration was adjusted to 2 × 10^4/mL using complete culture medium, then 100 μL cell suspension was inoculated in each well of a 96-well culture plate and cultured for 24 h. All the target compounds were adjusted to different concentrations ranging from 1.25 μmol/L to 40 μmol/L, then 100 μL solution was added to each well of 96-well culture plate and 100 μL complete culture medium was added to the control group. Cells were placed under 5% CO2 at 37 °C and cultured for 48 h. Then 5 mg/mL MTT 20 μL was added to each well of 96-well culture plate and cultured for another 2~4 h. The medium was removed and 150 μL DMSO was added to each well of 96-well culture plate, then oscillated and mixed 15 min. The absorbance (A) of each well was measured in terms of optical density at a wavelength of 570 nm, each cell viability assay was performed in triplicate and taken the average value, then calculated the IC50. Doxorubicin was the positive control drug.

Data set [3] concerns A549. Put plainly: MTT cell proliferation assay, A549. It counts as cell-based. The conditions noted are these: Homo sapiens, 48 h, read-out: In vitro cytotoxic activity IC50, A549. On the procedure: as §1, §2
In data set [4] the test system is HCC1937. Put plainly: MTT cell proliferation assay, HCC1937. It counts as cell-based. The settings on record: Homo sapiens, 48 h, read-out: In vitro cytotoxic activity IC50, HCC1937. The method, then:
as §1, §2
For orientation: Tetrazolium assays rely on reduction of a dye to a coloured formazan, in cell work by metabolically active cells.

The test system of data set [5] is MDA-MB-468. Briefly: MTT cell proliferation assay, MDA-MB-468. It counts as cell-based. The settings on record: Homo sapiens, 48 h, read-out: In vitro cytotoxic activity IC50, MDA-MB-48. On the procedure: as §1, §2
In data set [6] the test system is HCC1937 cells. Briefly: Annexin V-FITC/PI flow cytometry apoptosis. It counts as cell-based, human. The settings on record: control 6.7%. On the procedure: When the concentration of 5b was 7.5 μM, the proportion of apoptotic cells was 11.4%. When the concentration was 10 μM, the proportion of apoptotic cells was 13.4%. When the concentration was 15 μM, the proportion of apoptotic cells was 12.9%. When the concentration was 20 μM, the proportion of apoptotic cells was 29%. The proportion of apoptotic cells in control group was 6.7%. As the concentration increased, the number of apoptotic cells increased gradually and the number of apoptotic cells and concentration were directly proportional, although there was no significant difference between 10 μM and 15 μM.
The Annexin V-FITC apoptosis detection kit was used to detect apoptotic cells according to the manufacturer’s protocol. Briefly, cells were gently washed with PBS and collected using trypsinization, disaggregated to a single cell suspension and incubated with 5 μL of Annexin V-FITC and 10 μL of a PI solution for 15 min in the dark. The apoptotic cells were detected using a flow cytometer (BD, San Diego, CA, USA), then quantified and the percentage of apoptotic cells measured.

In data set [7] the test system is KM20L2. The arrangement: method as in PMID 9051914. The settings on record: cited from earlier work.
In data set [8] the test system is SK-MEL-5. Set-up: method as in PMID 9051914. The conditions noted are these: cited from earlier work.

For `O=c1[nH]c2cc(S(=O)(=O)N3CCOCC3)ccc2n1Cc1ccccc1` [5a, Benzyl-5-(morpholinosulfonyl)-1H-benzo[d]imidazol-2(3H)-one], the melting point was in the range of 198.5 to 200.1 °C. The compound further returned an IC50 in [1] of over 10000 µM. Besides, in [2], the IC50 lay within 2.6 to 9 µM. The IC50 in [3] stood at 5.2 ± 0.35 µM. Moreover, the IC50 in [4] came to 7.8 ± 0.49 µM. Also, the IC50 in data set [5] came out at 9 ± 0.67 µM.
`CN1CCN(S(=O)(=O)c2ccc3c(c2)[nH]c(=O)n3Cc2ccccc2)CC1` [5b, Benzyl-5-(4-methylpiperazin-1-ylsulfonyl)-1H-benzo[d]imidazol-2(3H)-one] displayed a melting point of 107.2 to 108.1 °C. Besides, the IC50 in data set [1] was determined as 293 µM. For the same compound, the IC50 in [2] was 2.6 to 9 µM. Besides, the IC50 in [3] was 3.1 ± 0.17 µM. Further, in [4], the IC50 was 2.6 ± 0.21 µM. In [6] (HCC1937, 7.5 μM), the “Proportion of apoptotic cells” value came out at 11.4%. The “Proportion of apoptotic cells” value in data set [6] (HCC1937, 10 μM) amounted to 13.4%. Further, the “Proportion of apoptotic cells” value in data set [6] (HCC1937, 15 μM) is 12.9%. For the same compound, the “Proportion of apoptotic cells” value in [6] (HCC1937, 20 μM) is 29%. The IC50 in [5] was found to be 6.3 ± 0.45 µM.
`O=c1[nH]c2cc(S(=O)(=O)NC3CCCCC3)ccc2n1Cc1ccccc1` [5c, Benzyl-N-cyclohexyl-2-oxo-2,3-dihydro-1H-benzo[d]imidazole-5-sulfonamide] gave a melting point of 166.7 to 167.2 °C. Also, in [1], half-maximal inhibition (IC50) was put at 248 µM. In addition, the “Potency compared to 5a and 5b” value in data set [2] is recorded as “equivalent to 10-fold inferior potency”. Also, in data set [3], the IC50 was 88 ± 6.1 µM. Further, the IC50 in data set [4] came out at 105 ± 8.9 µM. For the same compound, in [5], the IC50 was over 200 µM.
In turn, `O=c1[nH]c2cc(S(=O)(=O)N3CCCCC3)ccc2n1Cc1ccccc1` [5d, Benzyl-5-(piperidin-1-ylsulfonyl)-1H-benzo[d]imidazol-2(3H)-one] returned a melting point of 189.4 to 190.5 °C. In data set [1], this compound displayed an IC50 of 756 µM. Moreover, the “Potency compared to 5a and 5b” value in data set [2] is recorded as “equivalent to 10-fold inferior potency”. Also, the IC50 in data set [3] worked out at 77 ± 6.8 µM. For the same compound, in data set [4], the IC50 came to 85 ± 7.1 µM. Besides, the IC50 in data set [5] came to 73 ± 6.9 µM.
The compound `O=c1[nH]c2cc(S(=O)(=O)NCc3ccccc3)ccc2n1Cc1ccccc1` [5e, N,1-Dibenzyl-2-oxo-2,3-dihydro-1H-benzo[d]imidazole-5-sulfonamide] gave a melting point of 160.6 to 185.9 °C. Further, in [1], the 50% inhibitory concentration (IC50) is over 10000 µM. Moreover, in data set [2], the “Activity toward the cell lines (in words)” value is given as “almost no activity”. Besides, the IC50 in [3] was over 200 µM. Besides, the IC50 in data set [4] was determined as 127 ± 9.9 µM. Also, in data set [5], the IC50 was over 200 µM.
`O=C(c1ccccc1)c1cccc(NS(=O)(=O)c2ccc3c(c2)[nH]c(=O)n3Cc2ccccc2)c1` [5f, N-(3-Benzoylphenyl)-1-benzyl-2-oxo-2,3-dihydro-1H-benzo[d]imidazole-5-sulfonamide] returned a melting point of 85.2 to 86.3 °C. The same compound registered an IC50 in data set [1] of over 10000 µM. In addition, the “Activity toward the cell lines (in words)” value in [2] is listed as “almost no activity”. In addition, the IC50 in [3] was over 200 µM. In data set [4], the IC50 is over 200 µM. Further, the IC50 in [5] was determined as 82 ± 6.1 µM.
As for `O=c1[nH]c2cc(S(=O)(=O)Nc3ccccc3)ccc2n1Cc1ccccc1` [5g, Benzyl-2-oxo-N-phenyl-2,3-dihydro-1H-benzo[d]imidazole-5-sulfonamide], the melting point lay within 91.9 to 93.3 °C. Besides, in data set [1], the IC50 is 2000 µM. Further, the “Activity toward the cell lines (in words)” value in data set [2] was “almost no activity”. Besides, in data set [3], the IC50 is over 200 µM. The IC50 in data set [4] amounted to 152 ± 9.8 µM. For the same compound, the IC50 in data set [5] was over 200 µM.
With `O=c1[nH]c2cc(S(=O)(=O)NC3CC3)ccc2n1Cc1ccccc1` [5h, Benzyl-N-cyclopropyl-2-oxo-2,3-dihydro-1H-benzo[d]imidazole-5-sulfonamide], the melting point was 168.6 to 170.3 °C. Also, the IC50 in data set [1] was 370 µM. Further, the “Activity toward the cell lines (in words)” value in data set [2] is given as “almost no activity”. Further, the IC50 in data set [3] is over 200 µM. In addition, the IC50 in data set [4] is over 200 µM. Also, the IC50 in data set [5] is over 200 µM.
For the compound `CC(C)NS(=O)(=O)c1ccc2c(c1)[nH]c(=O)n2Cc1ccccc1` [5i, Benzyl-N-isopropyl-2-oxo-2,3-dihydro-1H-benzo[d]imidazole-5-sulfonamide], the melting point lay within 173.4 to 174.7 °C. Also, in data set [1], the IC50 came out at 709 µM. Besides, the “Activity toward the cell lines (in words)” value in data set [2] was “almost no activity”. In addition, the IC50 in [3] is over 200 µM. For the same compound, the IC50 in data set [4] is over 200 µM. Also, in data set [5], the IC50 is over 200 µM.
As to `Cc1ccccc1NS(=O)(=O)c1ccc2c(c1)[nH]c(=O)n2Cc1ccccc1` [5j, Benzyl-2-oxo-N-o-tolyl-2,3-dihydro-1H-benzo[d]imidazole-5-sulfonamide], the melting point was in the range of 223.6 to 225.7 °C. Also, in [1], the concentration for half-maximal inhibition (IC50) came to 666 µM. For the same compound, the “Activity toward the cell lines (in words)” value in [2] was “almost no activity”. Also, the IC50 in data set [3] is over 200 µM. The IC50 in [4] is over 200 µM. Moreover, in [5], the IC50 is over 200 µM.
Consider `O=c1[nH]c2cc(S(=O)(=O)NC3CCCCC3)ccc2n1CCc1ccccc1` [5k, N-Cyclohexyl-2-oxo-1-phenethyl-2,3-dihydro-1H-benzo[d]imidazole-5-sulfonamide], for which the melting point was in the range of 187 to 188.5 °C. Also, in data set [1], half-maximal inhibition (IC50) required 384 µM. For the same compound, the IC50 in data set [3] amounted to 116 ± 7.6 µM. Also, the IC50 in data set [4] was over 200 µM. Also, the IC50 in data set [5] amounted to 135 ± 9.7 µM.
As to `CN1CCN(S(=O)(=O)c2ccc3c(c2)[nH]c(=O)n3CCc2ccccc2)CC1` [5l, 5-(4-Methylpiperazin-1-ylsulfonyl)-1-phenethyl-1H-benzo[d]imidazol-2(3H)-one], the melting point fell in the range of 218.2 to 219.6 °C. The compound further returned an IC50 in data set [1] of 6310 µM. Further, the IC50 in data set [3] was 15 ± 1.1 µM. For the same compound, the IC50 in data set [4] worked out at 18 ± 1.2 µM. In data set [5], the half-inhibitory concentration (IC50) is 22 ± 1.6 µM.
The like results for `O=c1[nH]c2cc(S(=O)(=O)NC3CC3)ccc2n1CCc1ccccc1` [5m, N-Cyclopropyl-2-oxo-1-phenethyl-2,3-dihydro-1H-benzo[d]imidazole-5-sulfonamide] were, in that order, 217.8 to 218.9 °C, 448 µM, over 200 µM, over 200 µM and over 200 µM.
On to `O=c1[nH]c2cc(S(=O)(=O)N3CCCCC3)ccc2n1CCc1ccccc1` [5n, Phenethyl-5-(piperidin-1-ylsulfonyl)-1H-benzo[d]imidazol-2(3H)-one], for which the melting point fell in the range of 183.3 to 184.3 °C. Moreover, in [1], the IC50 is over 10000 µM. Moreover, the IC50 in data set [3] is 16 ± 0.9 µM. Further, the IC50 in data set [4] turned out to be 22 ± 1.3 µM. For the same compound, the IC50 in data set [5] was 12 ± 1.02 µM.
The like results for `O=c1[nH]c2cc(S(=O)(=O)N3CCOCC3)ccc2n1CCc1ccccc1` [5o, 5-(Morpholinosulfonyl)-1-phenethyl-1H-benzo[d]imidazol-2(3H)-one] were, in that order, 102.3 to 104.1 °C, over 10000 µM, 9.7 ± 0.88 µM, 11 ± 0.71 µM and 15 ± 0.93 µM.
As for `O=C1N[C@H]2n3c(cc(Br)c3Br)C(=O)N3CCC[C@]23N1` [Dibromophakellstatin], the ED50 in data set [7] and in data set [8] was 0.11 µg/mL (≈ 0.282 µM) throughout.
As for `COc1cccc2c1C(=O)c1c(O)c3c(c(O)c1C2=O)C[C@@](O)(C(=O)CO)C[C@@H]3O[C@H]1C[C@H](N)[C@H](O)[C@H](C)O1` [Doxorubicin, reference compound], the IC50 in data set [1] came to 12.2 µM; in data set [3], 2.5 ± 0.13 µM; in data set [4], 4.8 ± 0.22 µM; in data set [5], 2.7 ± 0.19 µM.
